These results are taken from US11059778B2, “Cannabinoid receptor CB2 ligand 4-(aminomethyl)-N, N-dialkylanilines” (UNIVERSITY OF PITTSBURGH—OF THE COMMONWEALTH SYSTEM OF …, priority 2015, dated 2021).

The data set deals with osteoclast precursor RAW264.7 cells. Type of data set: cell-based. On the procedure: FIGS. 6A and 6B relate to cAMP Assay Results. Cytotoxicity effects of the synthesized CB2 ligands. FIG. 5A: Cytotoxicity effects of compound 15. FIG. 5B: Cytotoxicity effects of compound 18. Osteoclast precursor RAW264.7 cells (1.5×10^3 cells/well) were seeded on 96-well plates. Cells were incubated with the indicated doses of compounds 15 and 18 for 48 hours. The percentage of cell survival was determined by the MTT assay. Data is the mean±SD of three experiments carried out in duplicate.
The cell-proliferation effect of our CB2 ligands on the osteoclast precursor RAW264.7 cells was assessed using MTT 3-(4,5-dimethylthiazol-2-yl)-2,5-diphenyltetrazolium bromide (Sigma, St. Louis, USA). […] Optical density was read at 540 nm and subtracted from the background at 720 nm. The effect of ligands on cell viability was expressed as percent cell viability, with vehicle-treated control cells set at 100% (Feng, R., et al., KD5170, a novel mercaptoketone-based histone deacetylase inhibitor, exerts antimyeloma effects by DNA damage and mitochondrial signaling. Mol Cancer Ther 2008, 7 (6), 1494-505).
The cytotoxicity assay was carried out to exclude that the high osteoclast formation inhibition effects were not due to the toxicity of the newly discovered compounds. The cytotoxic effects were measured by utilizing the MTT cell-viability assay. […]

For `CCN(CC)c1ccc(CN(Cc2cc(OC)c(OC)c(OC)c2)S(=O)(=O)/C=C/c2ccccc2)cc1` [Compound 15, (E)-N-(4-(diethylamino)benzyl)-2-phenyl-N-(3,4,5-trimethoxybenzyl)ethene-1-sulfonamidebenzenesulfonamide], the “cell viability as compared to the control group (MTT)” value was “not significantly altered”.
With `CCN(CC)c1ccc(CN(Cc2cc(OC)c(OC)c(OC)c2)S(=O)(=O)c2ccc(C=O)cc2)cc1` [Compound 18, N-(4-(diethylamino)benzyl)-4-formyl-N-(3,4,5-trimethoxybenzyl)benzenesulfonamide] the entry was “not significantly altered”.
